Measurements from patent publication US8088804B2, “N-hydroxyamide derivatives possessing antibacterial activity” (Pfizer Inc., priority 2005, dated 2012).
≈ marks a conversion by molar mass, not a printed value. Like-named read-outs stand apart in the source and are kept apart here.

Experiments:
E. coli (2) = assay: Susceptibility testing (MIC, CLSI microdilution); type: cell-based, Escherichia coli; settings: 20 h at 35° C., in µg/mL (unit assumed)
Method: (§1) Compounds were tested following the microdilution method of CLSI (Clinical and Laboratory Standards Institute. Methods for dilution antimicrobial susceptibility tests for bacteria that grow aerobically; Approved standard—sixth edition. CLSI document M7-A5, CLSI, Wayne, Pa. 2003). Assays were performed in sterile plastic 96-well microtiter trays with round bottom wells (Greiner).
(§2) Stock solutions of test compounds and control antibiotics were prepared at 10 mg/ml in DMSO. Serial 2-fold dilutions of each drug were performed in a microtiter plate across each row using DMSO as solvent at 100-fold the desired final concentration. Wells in columns #1-11 contain drug and column #12 was kept as a growth control for the organism with no drug. Each well in the mother plate was diluted with sterile deionized water and DMSO, mixed, and volumes of 10 μl distributed to each well in the resulting assay plates.
(§3) Stock cultures were prepared using the Microbank™ method (Pro-Lab Diagnostics) and stored at −80° C. To propagate each strain, one bead was removed from the frozen vial and aseptically streaked onto Trypticase Soy Agar (Difco) which were incubated at 35° C. Standardized inocula were prepared using the direct colony suspension method according to CLSI guidelines (Clinical and Laboratory Standards Institute. Methods for dilution antimicrobial susceptibility tests for bacteria that grow aerobically; Approved standard—sixth edition. CLSI document M7-A5, CLSI, Wayne, Pa., 2003). Isolated colonies were selected from an 18-24 hr agar plate and resuspended in 0.9% sterile saline to match a 0.5 McFarland turbidity standard using a calorimeter (Vitek) at 80% of transmitance. The suspension was used within 15 minutes of preparation.
(§4) Mueller-Hinton Broth (MHB) (Difco) was prepared at a 1.1× concentration and supplemented with Ca++ and Mg++ as recommended by CLSI. For each organism, the standardized suspension was diluted 1:180 into appropriate growth medium in a sterile reservoir. After mixing, wells in the drug-containing assay plates were inoculated with a volume of 90 μl. Thus, for each minimum inhibitory concentration (MIC) determination, each well contains a final volume of 100 μl with an inoculum size of approximately 5×10^5 colony forming units (cfu)/ml and no more than 1% DMSO.
(§5) The completed microtiter plates were incubated 20 h at 35° C. in ambient air. Optical density of each well was determined at 600 nm using a VersaMax Microplate reader (Molecular Devices, Sunnyvale, Calif.). The MIC was defined as the lowest drug concentration causing complete suppression of visible bacterial growth.

E. coli tolC = assay: Susceptibility testing (MIC, CLSI microdilution); type: cell-based, Escherichia coli; settings: 20 h at 35° C., unit assumed
Method: as §1, §2, §3, §4, §5

P. aerug. (2) = assay: Susceptibility testing (MIC, CLSI microdilution); type: cell-based, Pseudomonas aeruginosa; settings: 20 h at 35° C., in µg/mL (unit assumed)
Method: as §1, §2, §3, §4, §5

P. aerug. Hypersuc = assay: Susceptibility testing (MIC, CLSI microdilution); type: cell-based, Pseudomonas aeruginosa; settings: 20 h at 35° C., Δ efflux, hypersusceptible strain, unit assumed
Method: as §1, §2, §3, §4, §5

K. pneu. = assay: Susceptibility testing (MIC, CLSI microdilution); type: cell-based, Klebsiella pneumoniae; settings: 20 h at 35° C., unit assumed
Method: as §1, §2, §3, §4, §5

H. influen. = assay: Susceptibility testing (MIC, CLSI microdilution); type: cell-based, Haemophilus influenzae; settings: 20 h at 35° C., unit assumed
Method: as §1, §2, §3, §4, §5

P. ae LpxC enzyme = P. ae LpxC enzyme (Pseudomonas aeruginosa, UniProt P47205); assay: Enzyme inhibition testing (fluorescamine assay); type: biochemical; settings: for inhibition at 0.5 µg/mL: @0.5 μg/ml; for inhibition at 10 µg/mL: @10 μg/ml; for inhibition at 1 µg/mL: @1 μg/ml
Sequence of P. ae LpxC enzyme (P47205 whole entry): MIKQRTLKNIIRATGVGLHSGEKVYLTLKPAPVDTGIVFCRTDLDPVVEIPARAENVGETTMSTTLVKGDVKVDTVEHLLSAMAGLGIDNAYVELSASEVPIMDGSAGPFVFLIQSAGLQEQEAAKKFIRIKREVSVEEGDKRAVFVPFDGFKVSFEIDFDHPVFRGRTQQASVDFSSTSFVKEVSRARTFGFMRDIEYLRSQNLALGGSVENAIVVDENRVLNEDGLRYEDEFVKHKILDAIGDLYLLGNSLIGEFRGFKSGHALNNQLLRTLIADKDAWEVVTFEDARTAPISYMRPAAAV
Method: Compounds were tested based on a published method (Wang W., 2001, Anal Biochem, 290, 338-46) with modifications. Enzyme assays were performed in the assay buffer (50 mM HEPES, pH8, 0.005% Brij, 50 μM ZnSO4, 1 mg/ml BSA) in 96-well V-bottom microtiter plates.
Stock solutions of test compounds and control antibiotics are prepared at 10 mg/ml in DMSO and are diluted in the assay buffer to 6-fold the final testing concentration. 5 μl compound dilution is distributed to the well of the assay plate. EDTA is used as positive control and the final concentration in assay is 12.5 mM.
P. ae LpxC enzyme dilution in the assay buffer is added to the compound in plate and pre-incubated with the compound at room temperature for 10 min. LpxC substrate is added to initiate the enzyme reaction and the final enzyme and substrate concentrations are 1.2 μM and 0.4 mM, respectively. The reaction continues at RT for 4 hrs before diluted with 45 μl of Borate buffer (0.4 M, pH9), followed by addition of 40 μl derivatization reagent (fluorescamine 2 mg/ml DMF). This mixture is incubated at RT for 10 min followed by addition of 150 μl DMF/H2O (1:1). The resulting solution is loaded onto Millipore filter unit (Microcon 10 k MWCO) and spun at 13 k rpm on bench top centrifuge for 15 min. 100 μl of this filtrate is transferred to a low fluorescence clear-bottom 96-well plate (Corning) and the fluorescence is detected at ex360 nm and em465 nm on a Tecan fluorescence plate reader. The percent inhibition is calculated based on EDTA produces 100% inhibition and negative control produces 100% activity.

[1] = @0.1 μg/ml, read-out: ENZYME (percent inhibition)
[2] = read-out: ENZYME (percent inhibition)

| SMILES | MIC E. coli (2) (E. coli (2)) | MIC E. coli tolC (E. coli tolC) [µg/mL] | MIC P. aerug. (2) (P. aerug. (2)) | MIC P. aerug. Hypersuc (P. aerug. Hypersuc) [µg/mL] | MIC K. pneu. (K. pneu.) [µg/mL] | MIC H. influen. (H. influen.) [µg/mL] | inhibition at 0.1 µg/mL (P. ae LpxC enzyme; [1]) [%] | inhibition at 0.5 µg/mL (P. ae LpxC enzyme; [2]) [%] | inhibition at 10 µg/mL (P. ae LpxC enzyme; [2]) [%] | ENZYME (percent inhibition) (P. ae LpxC enzyme; @0.1 μg/ml) [%] | inhibition at 1 µg/mL (P. ae LpxC enzyme; [2]) [%] | inhibition at 0.1 µg/mL (P. ae LpxC enzyme; read-out: ENZYME (percent inhibition), @0.1 μg/ml) [%] |
| --- | --- | --- | --- | --- | --- | --- | --- | --- | --- | --- | --- | --- |
| O=C(NC(C(=O)NO)C(F)(F)F)c1ccc(-c2cc(F)cc(F)c2)cc1 (racemic) [Compound 23, DL-3′,5′-Difluoro-biphenyl-4-carboxylic acid (2,2,2-trifluoro-1-hydroxycarbamoyl-ethyl)-amide] | 16 | 8 (≈ 21.4 µM) | 8 | 2 (≈ 5.34 µM) | 16 (≈ 42.8 µM) | 16 (≈ 42.8 µM) | 24 |  |  |  |  |  |
| CCCc1ccc(-c2ccc(C(=O)N3CC[C@H](NC)[C@H]3C(=O)NO)cc2)cc1 [Compound 5] | 64 | 32 (≈ 83.9 µM) | >64 | 64 (≈ 168 µM) | > 64 | 32 (≈ 83.9 µM) |  | 29 |  |  |  |  |
| CCCc1ccc(-c2ccc(C(=O)NC(CSC)C(=O)NO)cc2)cc1 (stereo in doubt) [Compound 28, (S)-N-(1-(Hydroxyamino)-3-(methylthio)-1-oxopropan-2-yl)-4′-propylbiphenyl-4-carboxamide] | >64 | 32 (≈ 85.9 µM) | >64 | > 64 | > 64 | > 64 | 13 |  |  |  |  |  |
| CCCc1ccc(-c2ccc(C(=O)NC(CS(C)(=O)=O)C(=O)NO)cc2)cc1 (stereo in doubt) [Compound 29, (S)-N-(1-(Hydroxyamino)-3-(methylsulfone)-1-oxopropan-2-yl)-4′-propylbiphenyl-4-carboxamide] | >64 | ≤ 0.06 | >64 | 32 (≈ 79.1 µM) | 4 (≈ 9.89 µM) | > 64 | 59 |  |  |  |  |  |
| CCCc1ccc(-c2ccc(C(=O)N3CC[C@H](N)[C@H]3C(=O)NO)cc2)cc1 [Compound 2] | 64 | 32 (≈ 87.1 µM) |  | 64 (≈ 174 µM) | 64 (≈ 174 µM) | 16 (≈ 43.5 µM) |  | 65 |  |  |  |  |
| CCCc1ccc(-c2ccc(C(=O)N3CC[C@H](OC)[C@H]3C(=O)NO)cc2)cc1 [Compound 7] |  | 64 (≈ 167 µM) | >64 | 64 (≈ 167 µM) | 64 (≈ 167 µM) | > 64 |  |  | 84 |  |  |  |
| CCCc1ccc(-c2ccc(C(=O)NC(C(=O)NO)C(F)(F)F)cc2)cc1 (racemic) [Compound 20, DL-4′-Propyl-biphenyl-4-carboxylic acid (2,2,2-trifluoro-1-hydroxycarbamoyl-ethyl)-amide] | 0.5 | 0.25 (≈ 0.657 µM) | 16 | 1 (≈ 2.63 µM) | 0.5 (≈ 1.31 µM) | 0.25 (≈ 0.657 µM) | < 10 |  |  |  |  |  |
| O=C(NO)c1cocc1C(=O)Nc1cccc(SC(F)(F)F)c1 [Compound 32] |  | 64 (≈ 185 µM) | >64 | > 64 | > 64 | > 64 |  |  | < 10 |  |  |  |
| O=C(NO)[C@H]1N(C(=O)c2ccc(-c3ccc(F)cc3)cc2)CCS1(=O)=O [Compound 37, (S)-3-(4′-Fluorobiphenylcarbonyl)-N-hydroxythiazolidinesulfone-2-carboxamide] | >64 | ≤ 0.06 | 4-32 | 2 (≈ 5.29 µM) | > 64 | > 64 | 32 |  |  | 42 |  |  |
| CCCc1ccc(-c2ccc(C(=O)N3C[C@H](N)[C@@H](O)[C@H]3C(=O)NO)cc2)cc1 [Compound 12] | >64 | > 64 |  | 8 (≈ 20.9 µM) | > 64 | 32 (≈ 83.5 µM) |  | 95 |  |  |  |  |
| CCCc1ccc(-c2ccc(C(=O)N3C[C@@](O)(COC)C[C@H]3C(=O)NO)cc2)cc1 [Compound 9, (2S,4R)-N,4-Dihydroxy-4-(methoxymethyl)-1-(4′-propylbiphenylcarbonyl)pyrrolidine-2-carboxamide] | >64 | > 64 | >64 | 32 (≈ 77.6 µM) | > 64 | > 64 |  |  |  |  | 57 |  |
| CCCc1ccc(-c2ccc(C(=O)NC(C(=O)NO)c3cccs3)cc2)cc1 (centres unmarked) [Compound 30, N-(2-(Hydroxyamino)-2-oxo-1-(thiophen-2-yl)ethyl)-4′-propylbiphenyl-4-carboxamide] | 64 | 2 (≈ 5.07 µM) | >64 | 32 (≈ 81.1 µM) | 8 (≈ 20.3 µM) | 16 (≈ 40.6 µM) |  | 87 |  |  |  |  |
| CCCc1ccc(-c2ccc(C(=O)N3CCS(=O)(=O)[C@@H]3C(=O)NO)cc2)cc1 [Compound 19, (R)-N-Hydroxy-3-(4′-propylbiphenylcarbonyl)thiazolidine-sulfone-2-carboxamide] | 8-16 | 2 (≈ 4.97 µM) | 8 | 2 (≈ 4.97 µM) | 4 (≈ 9.94 µM) | 32 (≈ 79.5 µM) | 10 |  |  |  |  |  |
| CCCc1ccc(-c2ccc(C(=O)N3CCS[C@@H]3C(=O)NO)cc2)cc1 [Compound 18, (R)-N-Hydroxy-3-(4′-propylbiphenylcarbonyl)thiazolidine-2-carboxamide] | >64 | 16 (≈ 43.2 µM) | >64 | 32 (≈ 86.4 µM) | 32 (≈ 86.4 µM) | 64 (≈ 173 µM) |  | 50 |  |  |  |  |
| O=C(NO)[C@H]1N(C(=O)c2ccc(-c3cc(F)cc(F)c3)cc2)CCS1(=O)=O [Compound 36, (S)-3-(3′,5′-Difluorobiphenylcarbonyl)-N-hydroxythiazolidinesulfone-2-carboxamide] | >64 | 0.125 (≈ 0.315 µM) |  | 8 (≈ 20.2 µM) | > 64 | > 64 |  |  |  |  |  | 8 |
| CCCc1ccc(-c2ccc(C(=O)N3CC[C@@H](O)[C@H]3C(=O)NO)cc2)cc1 [Compound 39] | >64 | 64 (≈ 174 µM) |  | 4 (≈ 10.9 µM) | > 64 | > 64 |  |  |  |  | 95.2 |  |
| CCCc1ccc(-c2ccc(C(=O)N3CS(=O)(=O)CC3C(=O)NO)cc2)cc1 (stereo in doubt) [Compound 17, (S)-N-Hydroxy-3-(4′-propylbiphenylcarbonyl)thiazolidine-sulfone-4-carboxamide] |  | 8 (≈ 19.9 µM) | 16 | 2 (≈ 4.97 µM) | 16 (≈ 39.8 µM) | > 64 |  | 98 |  |  |  |  |
